Among the data in BindingDB's records for PubMed 20126400 (University of Oklahoma, 2010) are Ki values, retold here.

Where only a bound is given, the exact number is not on record here.

What all share (assay): Ray2010 Assay 74
Assay [1] concerns the target T1, 5-hydroxytryptamine receptor 1A (Homo sapiens, UniProt P08908).
T1 sequence (P08908 whole entry): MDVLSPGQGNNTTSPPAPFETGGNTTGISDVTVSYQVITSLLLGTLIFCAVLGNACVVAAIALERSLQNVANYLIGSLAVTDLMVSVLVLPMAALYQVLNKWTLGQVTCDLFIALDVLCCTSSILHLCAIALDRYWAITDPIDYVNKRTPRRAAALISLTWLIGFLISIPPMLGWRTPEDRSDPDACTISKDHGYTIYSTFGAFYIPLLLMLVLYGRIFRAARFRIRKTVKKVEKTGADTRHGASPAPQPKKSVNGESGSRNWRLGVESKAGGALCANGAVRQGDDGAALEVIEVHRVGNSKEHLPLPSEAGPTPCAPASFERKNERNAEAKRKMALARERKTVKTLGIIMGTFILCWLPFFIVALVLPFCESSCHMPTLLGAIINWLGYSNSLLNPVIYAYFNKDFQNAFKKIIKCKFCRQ
From the text: (§1) Table S2 shows raw Ki data for the current study combined with data collected from the literature for the ten additional compounds.

The target in assay [2] is 5-hydroxytryptamine receptor 1B (Homo sapiens, UniProt P28222).
From the text: as §1

Assay [3] addresses 5-hydroxytryptamine receptor 2A (Homo sapiens, UniProt P28223).
From the text: as §1

Assay [4] addresses 5-hydroxytryptamine receptor 2B (Homo sapiens, UniProt P41595).
From the text: as §1

The target in assay [5] is 5-hydroxytryptamine receptor 5A (Homo sapiens, UniProt P47898).
From the text: as §1

The target in assay [6] is T2, Alpha-1A adrenergic receptor (Homo sapiens, UniProt P35348).
T2 sequence (P35348 whole entry): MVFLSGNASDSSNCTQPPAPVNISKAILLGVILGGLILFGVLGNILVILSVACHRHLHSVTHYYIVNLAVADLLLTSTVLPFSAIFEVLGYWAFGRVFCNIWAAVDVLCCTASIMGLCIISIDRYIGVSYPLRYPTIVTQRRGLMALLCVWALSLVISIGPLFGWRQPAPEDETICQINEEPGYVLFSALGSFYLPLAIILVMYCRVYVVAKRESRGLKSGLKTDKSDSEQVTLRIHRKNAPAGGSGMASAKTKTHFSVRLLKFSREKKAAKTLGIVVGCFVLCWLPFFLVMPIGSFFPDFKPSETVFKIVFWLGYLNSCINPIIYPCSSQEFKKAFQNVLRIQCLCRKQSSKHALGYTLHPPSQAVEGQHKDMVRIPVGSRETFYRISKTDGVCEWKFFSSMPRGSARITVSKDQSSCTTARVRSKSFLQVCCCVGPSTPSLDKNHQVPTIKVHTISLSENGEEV
From the text: as §1

The target of assay [7] is T3, Alpha-1B adrenergic receptor (Homo sapiens, UniProt P35368).
T3 sequence (P35368 whole entry): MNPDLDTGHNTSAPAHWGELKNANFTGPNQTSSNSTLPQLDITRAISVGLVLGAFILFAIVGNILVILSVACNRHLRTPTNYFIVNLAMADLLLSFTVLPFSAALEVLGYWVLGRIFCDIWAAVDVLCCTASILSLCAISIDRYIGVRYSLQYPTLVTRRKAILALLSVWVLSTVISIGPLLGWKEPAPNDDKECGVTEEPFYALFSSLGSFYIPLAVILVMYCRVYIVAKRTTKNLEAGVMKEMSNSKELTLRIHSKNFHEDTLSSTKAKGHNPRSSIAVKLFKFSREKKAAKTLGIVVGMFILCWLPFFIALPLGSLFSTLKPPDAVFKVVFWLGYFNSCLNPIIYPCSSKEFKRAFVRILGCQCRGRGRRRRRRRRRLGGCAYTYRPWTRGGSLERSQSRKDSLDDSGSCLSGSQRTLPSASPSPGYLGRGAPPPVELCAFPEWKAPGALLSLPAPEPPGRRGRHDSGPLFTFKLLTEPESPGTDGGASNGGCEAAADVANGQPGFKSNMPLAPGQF
From the text: as §1

The next assay concerns the target D(2) dopamine receptor (Homo sapiens, UniProt P14416).
From the text: as §1

The next assay has as its target Histamine H1 receptor (Homo sapiens, UniProt P35367).
From the text: as §1

In assay [8] the target is T4, Muscarinic acetylcholine receptor M1 (Homo sapiens, UniProt P11229).
T4 sequence (P11229 whole entry): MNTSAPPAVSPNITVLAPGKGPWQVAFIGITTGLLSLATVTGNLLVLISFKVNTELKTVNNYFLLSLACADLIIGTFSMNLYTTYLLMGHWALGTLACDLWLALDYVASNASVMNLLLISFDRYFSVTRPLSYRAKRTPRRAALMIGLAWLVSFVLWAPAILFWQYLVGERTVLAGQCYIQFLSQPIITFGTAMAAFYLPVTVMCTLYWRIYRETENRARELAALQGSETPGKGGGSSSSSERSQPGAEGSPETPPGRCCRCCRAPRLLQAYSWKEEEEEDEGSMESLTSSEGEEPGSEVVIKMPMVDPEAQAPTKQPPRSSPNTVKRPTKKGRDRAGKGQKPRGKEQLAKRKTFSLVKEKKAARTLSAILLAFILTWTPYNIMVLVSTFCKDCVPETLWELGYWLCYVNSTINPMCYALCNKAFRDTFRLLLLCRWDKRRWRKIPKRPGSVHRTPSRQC
From the text: as §1

The target in assay [9] is T5, Muscarinic acetylcholine receptor M5 (Homo sapiens, UniProt P08912).
T5 sequence (P08912 whole entry): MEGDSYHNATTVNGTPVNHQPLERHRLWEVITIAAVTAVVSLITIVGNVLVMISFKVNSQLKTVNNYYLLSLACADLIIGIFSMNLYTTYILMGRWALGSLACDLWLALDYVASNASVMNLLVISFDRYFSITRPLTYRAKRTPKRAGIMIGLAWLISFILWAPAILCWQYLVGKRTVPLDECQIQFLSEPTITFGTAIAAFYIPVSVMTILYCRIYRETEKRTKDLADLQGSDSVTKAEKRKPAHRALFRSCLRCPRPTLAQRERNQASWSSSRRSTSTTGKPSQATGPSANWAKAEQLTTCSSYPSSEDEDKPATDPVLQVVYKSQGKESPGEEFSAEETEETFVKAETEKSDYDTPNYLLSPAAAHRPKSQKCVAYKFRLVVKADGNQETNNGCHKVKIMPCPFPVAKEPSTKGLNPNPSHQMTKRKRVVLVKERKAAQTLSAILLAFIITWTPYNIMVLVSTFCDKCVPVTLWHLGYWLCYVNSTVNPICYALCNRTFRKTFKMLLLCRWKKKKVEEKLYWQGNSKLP
From the text: as §1

Chain of 5-hydroxytryptamine receptor 2A (P28223 whole entry): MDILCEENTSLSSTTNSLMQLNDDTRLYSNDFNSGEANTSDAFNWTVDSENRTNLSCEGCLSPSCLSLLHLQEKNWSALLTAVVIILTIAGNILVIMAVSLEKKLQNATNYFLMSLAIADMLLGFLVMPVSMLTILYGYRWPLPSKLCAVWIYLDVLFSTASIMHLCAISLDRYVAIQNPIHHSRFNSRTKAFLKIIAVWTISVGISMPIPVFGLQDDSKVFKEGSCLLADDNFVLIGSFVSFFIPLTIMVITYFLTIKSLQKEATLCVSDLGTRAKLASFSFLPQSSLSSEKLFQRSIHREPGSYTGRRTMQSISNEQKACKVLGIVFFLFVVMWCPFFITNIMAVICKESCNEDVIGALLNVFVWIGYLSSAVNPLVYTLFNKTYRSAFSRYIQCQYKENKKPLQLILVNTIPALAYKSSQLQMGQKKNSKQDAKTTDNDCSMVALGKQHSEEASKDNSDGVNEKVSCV
Chain of D(2) dopamine receptor (P14416 whole entry): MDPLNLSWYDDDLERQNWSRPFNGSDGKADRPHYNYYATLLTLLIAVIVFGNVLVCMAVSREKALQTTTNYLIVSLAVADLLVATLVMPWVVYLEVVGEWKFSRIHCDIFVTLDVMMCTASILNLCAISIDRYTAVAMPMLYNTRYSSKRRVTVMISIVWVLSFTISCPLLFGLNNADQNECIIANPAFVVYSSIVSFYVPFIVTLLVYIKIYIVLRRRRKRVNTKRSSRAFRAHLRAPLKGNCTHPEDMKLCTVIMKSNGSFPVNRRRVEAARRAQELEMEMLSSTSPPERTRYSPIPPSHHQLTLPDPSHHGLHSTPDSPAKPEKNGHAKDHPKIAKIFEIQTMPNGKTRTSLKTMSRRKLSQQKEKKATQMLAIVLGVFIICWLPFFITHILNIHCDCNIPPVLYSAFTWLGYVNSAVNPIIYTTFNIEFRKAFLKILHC
Chain of 5-hydroxytryptamine receptor 1B (P28222 whole entry): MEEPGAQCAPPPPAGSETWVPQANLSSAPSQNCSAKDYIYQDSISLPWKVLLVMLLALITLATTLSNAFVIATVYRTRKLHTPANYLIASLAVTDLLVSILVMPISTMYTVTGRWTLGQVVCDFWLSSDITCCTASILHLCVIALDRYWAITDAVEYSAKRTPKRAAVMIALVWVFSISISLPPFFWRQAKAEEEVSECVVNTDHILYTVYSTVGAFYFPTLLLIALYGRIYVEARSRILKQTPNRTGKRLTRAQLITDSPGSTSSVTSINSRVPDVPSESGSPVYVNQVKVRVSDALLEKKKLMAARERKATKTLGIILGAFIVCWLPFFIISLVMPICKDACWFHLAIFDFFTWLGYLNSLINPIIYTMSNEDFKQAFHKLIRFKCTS
Chain of 5-hydroxytryptamine receptor 5A (P47898 whole entry): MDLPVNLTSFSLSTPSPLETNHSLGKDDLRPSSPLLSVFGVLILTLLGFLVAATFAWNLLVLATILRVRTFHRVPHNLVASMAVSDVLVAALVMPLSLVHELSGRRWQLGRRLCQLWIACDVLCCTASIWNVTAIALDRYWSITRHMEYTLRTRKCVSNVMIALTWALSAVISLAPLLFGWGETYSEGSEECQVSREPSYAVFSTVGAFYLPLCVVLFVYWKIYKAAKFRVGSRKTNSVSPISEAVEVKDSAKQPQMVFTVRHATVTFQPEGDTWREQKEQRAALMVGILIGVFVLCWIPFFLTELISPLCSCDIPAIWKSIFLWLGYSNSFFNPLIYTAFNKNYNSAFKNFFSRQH
Chain of 5-hydroxytryptamine receptor 2B (P41595 whole entry): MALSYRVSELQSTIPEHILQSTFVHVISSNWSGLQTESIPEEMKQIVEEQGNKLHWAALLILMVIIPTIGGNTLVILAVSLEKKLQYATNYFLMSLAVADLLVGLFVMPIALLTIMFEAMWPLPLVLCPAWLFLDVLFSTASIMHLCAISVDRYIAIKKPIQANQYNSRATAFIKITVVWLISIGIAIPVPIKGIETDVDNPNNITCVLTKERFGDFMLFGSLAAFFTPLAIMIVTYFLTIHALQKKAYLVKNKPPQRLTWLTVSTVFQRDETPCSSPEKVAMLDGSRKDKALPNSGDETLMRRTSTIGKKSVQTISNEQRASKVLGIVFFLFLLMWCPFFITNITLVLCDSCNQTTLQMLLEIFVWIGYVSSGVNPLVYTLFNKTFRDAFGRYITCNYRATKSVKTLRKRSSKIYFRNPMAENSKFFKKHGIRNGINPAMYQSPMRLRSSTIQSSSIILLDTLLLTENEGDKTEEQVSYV
Chain of Histamine H1 receptor (P35367 whole entry): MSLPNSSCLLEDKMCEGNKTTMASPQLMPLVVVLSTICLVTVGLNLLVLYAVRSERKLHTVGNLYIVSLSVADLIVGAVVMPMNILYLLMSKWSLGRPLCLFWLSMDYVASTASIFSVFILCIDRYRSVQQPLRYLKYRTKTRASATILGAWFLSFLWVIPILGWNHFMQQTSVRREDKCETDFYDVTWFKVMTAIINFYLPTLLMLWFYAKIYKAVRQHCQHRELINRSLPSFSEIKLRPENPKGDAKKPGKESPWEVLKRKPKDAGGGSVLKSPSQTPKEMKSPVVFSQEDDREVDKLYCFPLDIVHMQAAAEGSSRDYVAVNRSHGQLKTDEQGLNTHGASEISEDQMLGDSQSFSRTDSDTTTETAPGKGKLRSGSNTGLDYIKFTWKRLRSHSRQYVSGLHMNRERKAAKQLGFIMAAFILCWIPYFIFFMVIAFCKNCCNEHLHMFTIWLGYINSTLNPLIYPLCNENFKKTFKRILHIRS

One may read the Ki as a dissociation constant, usually derived from enzyme kinetics or from competition with a known ligand. On to `COc1cc(CCN)c(OC)cc1Br`, for which the Ki in [1] was 0.241 µM; in assay [2] it was 0.104 µM; in [3] it was 0.0276 µM; in [4], 0.0135 µM; in [5], > 10 µM; in [6], > 10 µM. Also, the inhibition constant Ki was > 10 µM in assay [7]; 3.37 µM on D(2) dopamine receptor; > 10 µM on Histamine H1 receptor; > 10 µM in [8]; > 10 µM in [9].
For `COC(=O)[C@@H]1C[C@H](OC(C)=O)C(=O)[C@H]2[C@@]1(C)CC[C@H]1C(=O)O[C@H](c3ccoc3)C[C@]21C` [2S,4aR,6a(R,7R,9S,10aS,10bR)-9-(acetyloxy)-2-(furan-3-yl)dodecahydro-6a,10b-dimethyl-4,10-dioxo-2H-naphtho[2,1-c]pyran-7-carboxylic acid methyl ester], the Ki in assay [1], in assay [2], in assay [3], in [4], in assay [5] and in [6] was > 10 µM each time. In addition, the Ki (in assay [7]; at D(2) dopamine receptor; on Histamine H1 receptor; in [8]; in [9]) was > 10 µM in each case.
For `COc1ccc2[nH]cc(CCN(C)C(C)C)c2c1` [5-meo-mipt], the inhibition constant Ki in [1] is 0.0123 µM; in assay [2], 0.303 µM; in assay [3], 0.448 µM; in assay [4], 0.0585 µM; in assay [5], 0.953 µM; in assay [6] it was > 10 µM. Further, the Ki in assay [7] was > 10 µM; on D(2) dopamine receptor it was > 10 µM; at Histamine H1 receptor it was 4.82 µM; in [8], > 10 µM; in assay [9], > 10 µM.
For “CAS_82830-44-2::(2R)-1-(4-iodo-2,5-dimethoxyphenyl)propan-2-amine::DOI,(-)::US20250270173, Compound DOI”, the Ki in assay [1] was 2.22 µM; in assay [2], > 10 µM; in assay [3], 0.165 µM; in assay [4], 0.336 µM; in assay [5], > 10 µM; in assay [6] it was > 10 µM. The Ki is > 10 µM in [7]; > 10 µM at D(2) dopamine receptor; 1.76 µM at Histamine H1 receptor; 2.72 µM in [8]; 2.21 µM in [9].
`CNC(C)Cc1ccc2c(c1)OCO2` (centres undefined) [mdma]: the Ki in [1] was > 10 µM; in [2] it was > 10 µM; in assay [3], > 10 µM; in assay [4] it was 0.5 µM; in [5], > 10 µM; in [6] it was > 10 µM. Also, the Ki in assay [7] is > 10 µM; on D(2) dopamine receptor, > 10 µM; at Histamine H1 receptor it was > 10 µM; in assay [8], > 10 µM; in [9], 6.33 µM.
With `CCCN(CCC)CCc1c[nH]c2ccccc12` [dpt], the Ki in [1] worked out at 0.0318 µM; in assay [2], 0.854 µM; in assay [3] it was 2.58 µM; in assay [4] it was 0.042 µM; in assay [5], 4.37 µM; in assay [6] it was 0.881 µM. Besides, the Ki in [7] was 0.443 µM; at D(2) dopamine receptor, 9.25 µM; at Histamine H1 receptor, 0.125 µM; in assay [8], > 10 µM; in assay [9], > 10 µM.
Regarding `CCSc1cc(OC)c(CCN)cc1OC` [2C-T-2], the Ki was 0.381 µM in [1]; 0.858 µM in assay [2]; 0.0399 µM in assay [3]; 0.006 µM in assay [4]; > 10 µM in [5]; > 10 µM in assay [6]. In addition, the Ki in assay [7] was > 10 µM; on D(2) dopamine receptor it was 2.79 µM; on Histamine H1 receptor it was > 10 µM; in [8] it was > 10 µM; in [9] it was 1.5 µM.
Consider `CCOc1cc(OC)c(CC(C)N)cc1OC` (centres undefined), for which the Ki is > 10 µM in assay [1]; > 10 µM in assay [2]; 3.95 µM in assay [3]; 0.0645 µM in assay [4]; > 10 µM in assay [5]; > 10 µM in assay [6]. Further, the Ki (in [7]; at D(2) dopamine receptor; on Histamine H1 receptor; in assay [8]; in assay [9]) was > 10 µM throughout.
With `CCSc1cc(OC)c(CC(N)CC)cc1OC` (centres undefined) [1-(4-Ethylsulfanyl-2,5-dimethoxy-benzyl)-propylamine], the inhibition constant Ki is 5.34 µM in [1]; > 10 µM in assay [2]; 0.274 µM in assay [3]; 0.0581 µM in assay [4]; 1.59 µM in assay [5]; > 10 µM in [6]. In addition, the Ki (in assay [7]; on D(2) dopamine receptor; on Histamine H1 receptor; in [8]; in [9]) was > 10 µM each time.
